Data reported in patent US9187467B2, “2-phenyl benzothiazole linked imidazole compounds as potential anticancer agents and process for the preparation thereof” (Council of Scientific and Industrial Research, priority 2012, dated 2015).
Like-named read-outs stand apart in the source and are kept apart here.

Key:
Assay type in all cases: cell-based, human
[1] = test system: HT29; test: SRB anticancer assay, colon; conditions: Homo sapiens, HT-29; HT29, 48 h
[2] = test system: NCI-H322M; test: SRB anticancer assay, non-small lung; conditions: Homo sapiens, 48 h
[3] = test system: PC-3; test: SRB anticancer assay, prostate; design: Log10GI50: unit not given here; conditions: for GI50: Homo sapiens, PC-3, 48 h; for Log10GI50: PC-3, present compounds
[4] = test system: UACC-257; test: SRB anticancer assay, melanoma; conditions: for GI50: Homo sapiens, UACC-257, 48 h; for Log10GI50: UACC-257, present compounds
[5] = test system: NCI-H522; test: SRB anticancer assay, non-small lung; design: Log10GI50: unit not given here; conditions: for GI50: Homo sapiens, NCI-H522, 48 h; for Log10GI50: NCI-H522, present compounds
[6] = test system: MALME-3M; test: SRB anticancer assay, melanoma; design: Log10GI50: unit not given here; conditions: for GI50: Homo sapiens, Malme-3M, 48 h; for Log10GI50: MALME-3M, present compounds
[7] = test system: SK-MEL-28; test: SRB anticancer assay, melanoma; design: Log10GI50: unit not given here; conditions: for GI50: Homo sapiens, SK-MEL-28, 48 h; for Log10GI50: SK-MEL-28, present compounds
[8] = test system: BT-549; test: SRB anticancer assay, breast; design: Log10GI50: unit not given here; conditions: for Log10GI50: BT-549, present compounds; for GI50: Homo sapiens, BT-549, 48 h
[9] = test system: SF-268; test: SRB anticancer assay, CNS; design: Log10GI50: unit not given here; conditions: for GI50: Homo sapiens, SF-268, 48 h; for Log10GI50: SF-268, present compounds
[10] = test system: LOX IMVI; test: SRB anticancer assay, melanoma; design: Log10GI50: unit not given here; conditions: for GI50: Homo sapiens, 48 h; for Log10GI50: present compounds
[11] = test system: TK-10; test: SRB anticancer assay, renal; conditions: Homo sapiens, TK-10, 48 h
[12] = test system: 786-0; test: SRB anticancer assay, renal; conditions: for Log10GI50: 786-0, present compounds; for GI50: Homo sapiens, 786-0, 48 h
[13] = test system: KM12; test: SRB anticancer assay, colon; conditions: Homo sapiens, KM12, 48 h
[14] = test system: HS 578T; test: SRB anticancer assay, breast; design: Log10GI50: unit not given here; conditions: for GI50: Homo sapiens, 48 h
[15] = test system: OVCAR-8; test: SRB anticancer assay, ovarian; design: Log10GI50: unit not given here; conditions: for GI50: Homo sapiens, OVCAR-8, 48 h; for Log10GI50: OVCAR-8, present compounds
[16] = test system: MDA-MB-231/ATCC; test: SRB anticancer assay, breast; design: Log10GI50: unit not given here; conditions: for GI50: 48 h; for Log10GI50: MDA-MB-231/ATCC, present compounds
[17] = test system: OVCAR-5; test: SRB anticancer assay, ovarian; conditions: Homo sapiens, OVCAR-5, 48 h
[18] = test system: SF-295; test: SRB anticancer assay, CNS; design: Log10GI50: unit not given here; conditions: for GI50: Homo sapiens, SF-295, 48 h; for Log10GI50: SF-295, present compounds
[19] = test system: K-562; test: SRB anticancer assay, leukemia; design: Log10GI50: unit not given here; conditions: for GI50: Homo sapiens, K562, K-562, 48 h; for Log10GI50: K-562, present compounds
[20] = test system: SNB-19; test: SRB anticancer assay, CNS; design: Log10GI50: unit not given here; conditions: for GI50: Homo sapiens, SNB-19, 48 h; for Log10GI50: SNB-19, present compounds
[21] = test system: ACHN; test: SRB anticancer assay, renal; design: Log10GI50: unit not given here; conditions: for GI50: Homo sapiens, 48 h; for Log10GI50: present compounds
[22] = test system: DU-145; test: SRB anticancer assay, prostate; design: Log10GI50: unit not given here; conditions: for Log10GI50: DU-145, present compounds; for GI50: Homo sapiens, DU-145, 48 h
[23] = test system: SK-OV-3; test: SRB anticancer assay, ovarian; conditions: Homo sapiens, SK-OV-3, 48 h
[24] = test system: CNS cancer cell lines; test: SRB anticancer assay, panel result; conditions: for mean graph midpoint value (MG_MID) of Log10 GI50 / mean graph midpoint value (MG_MID) of log10 TGI / CC50: CNS panel; for mean graph midpoint value (MG_MID) of log10 TGI: total inhibition of net cell growth; for CC50 / GI50: Homo sapiens; for CC50: 50% net cell death, read-out: mean graph midpoint value (MG_MID) of Log10 LC50 (converted); for GI50: six CNS cancer cell lines, exposure at least 48 h, read-out: GI50, range over the panel
Method: (§1) The compounds were evaluated for anticancer activity against sixty human cancer cells derived from nine cancer types (leukemia cell line, non-small-cell lung cell line, colon cell line, CNS cell line, melanoma cell line, ovarian cell line, prostate cell line, renal cancer cell line and breast cancer cell line) as shown in Table 1. For each compound, dose response curves for each cell line were measured at a minimum of five concentrations at 10 fold dilutions. A protocol of 48 h continuous drug exposure was used and a sulforhodamine B (SRB) protein assay was used to estimate cell viability or growth.

[25] = test system: Leukemia cancer cell lines; test: SRB anticancer assay, panel result; conditions: for LC50 / GI50: Homo sapiens; for LC50 / mean graph midpoint value (MG_MID) of Log10 GI50 / mean graph midpoint value (MG_MID) of log10 TGI: Leukemia panel; for LC50: 50% net cell death, read-out: mean graph midpoint value (MG_MID) of Log10 LC50 (converted); for GI50: six leukemia cancer cell lines, exposure at least 48 h, read-out: GI50, range over the panel; for mean graph midpoint value (MG_MID) of log10 TGI: total inhibition of net cell growth
Method: as §1

[26] = test system: RXF 393; test: SRB anticancer assay, renal; design: Log10GI50: unit not given here; conditions: for GI50: Homo sapiens, RXF 393, 48 h; for Log10GI50: RXF 393, present compounds
[27] = test system: UACC-62; test: SRB anticancer assay, melanoma; conditions: for GI50: Homo sapiens, UACC-62, 48 h; for Log10GI50: UACC-62, present compounds
[28] = test system: MCF7; test: SRB anticancer assay, breast; conditions: Homo sapiens, MCF7, 48 h
[29] = test system: SF-539; test: SRB anticancer assay, CNS; design: Log10GI50: unit not given here; conditions: for GI50: Homo sapiens, SF-539, 48 h; for Log10GI50: SF-539, present compounds
[30] = test system: SK-MEL-2; test: SRB anticancer assay, melanoma; conditions: for GI50: Homo sapiens, SK-MEL-2, 48 h; for Log10GI50: SK-MEL-2, present compounds
[31] = test system: SK-MEL-5; test: SRB anticancer assay, melanoma; conditions: Homo sapiens, SK-MEL-5, 48 h
[32] = Homo sapiens, MDA-MB-231, 48 h, MDA-MB-231/ATCC (row head MDA-MB-), read-out: GI50

## COc1cc(-c2cncn2-c2ccc(-c3nc4ccc(F)cc4s3)cc2)ccc1F [Compound 4c, 6-Fluoro-2-(4-(5-(4-fluoro-3-methoxyphenyl)-1H-imidazol-1-yl)phenyl)benzo[d]thiazole]
[1]
  GI50: 10.8 µM
[2]
  GI50: 36.3 µM
[3]
  GI50: 3.47 µM
  Log10GI50: −5.46
[4]
  GI50: 4.11 µM
  Log10GI50: −5.39 log10(M)
[5]
  GI50: 9.9 µM
  Log10GI50: −5.00
[6]
  GI50: 11.1 µM
  Log10GI50: −4.95
[7]
  GI50: 35.1 µM
  Log10GI50: −4.45
[8]
  Log10GI50: −4.94
  GI50: 7.98 µM
[9]
  GI50: 12.7 µM
  Log10GI50: −4.51
[10]
  GI50: 35.9 µM
  Log10GI50: −4.44
[11]
  GI50: 38.8 µM
[12]
  Log10GI50: −4.44 log10 M
  GI50: 36.1 µM
[13]
  GI50: 6.4 µM
[14]
  GI50: 11.5 µM
[15]
  GI50: 15.2 µM
  Log10GI50: −4.82
[16]; [32]
  GI50: 32.2 µM
[16]
  Log10GI50: −4.49
[16]; listed as head printed 231/ATCC (second line of MDA-MB-231/ATCC)
  GI50: —a
[17]
  GI50: > 100 µM
[18]
  GI50: 75.9 µM
  Log10GI50: −4.90
[19]
  GI50: 3.93 µM
  Log10GI50: −5.41
[20]
  GI50: 20.6 µM
  Log10GI50: >−4.0
[21]
  GI50: 29.1 µM
  Log10GI50: −4.54
[22]
  Log10GI50: −4.85
  GI50: 14.3 µM
[23]
  GI50: > 100 µM
[24]
  mean graph midpoint value (MG_MID) of Log10 GI50: −4.52 mol/L
  mean graph midpoint value (MG_MID) of log10 TGI: −4.05
  CC50: > 100 µM
  GI50: 12.6 to 75.9 µM
[25]
  LC50: > 100 µM
  GI50: 2.5 to 6.92 µM
  mean graph midpoint value (MG_MID) of Log10 GI50: −5.38 log10(mol/L)
  mean graph midpoint value (MG_MID) of log10 TGI: −4.19
[26]
  GI50: 13.5 µM
  Log10GI50: −4.87
[27]
  GI50: 8.67 µM
  Log10GI50: −5.06 log10 M
[28]
  GI50: 23.5 µM
[29]
  GI50: > 100 µM
  Log10GI50: −4.12
[30]
  GI50: 39.7 µM
  Log10GI50: −4.40 M
[31]
  GI50: 12.1 µM

## COc1ccc(-c2cncn2-c2ccc(-c3nc4cc(OC)c(OC)c(OC)c4s3)cc2)cc1N [Compound 7j, 2-Methoxy-5-(1-(4-(5,6,7-trimethoxybenzo[d]thiazol-2-yl)phenyl)-1H-imidazol-5-yl)benzeneamine]
[1]
  GI50: 3.87 µM
[2]
  GI50: 25.7 µM
[3]
  GI50: 2.59 µM
  Log10GI50: −5.59
[4]
  GI50: > 100 µM
  Log10GI50: >−4.0 log10(M)
[5]
  GI50: 3.37 µM
  Log10GI50: −5.47
[6]
  GI50: 2.48 µM
  Log10GI50: −5.61
[7]
  GI50: 13.7 µM
  Log10GI50: −4.86
[8]
  Log10GI50: −5.21
  GI50: 3.02 µM
[9]
  GI50: 47 µM
  Log10GI50: −4.33
[10]
  GI50: 4.75 µM
  Log10GI50: −5.32
[11]
  GI50: 4.16 µM
[12]
  Log10GI50: −5.24 log10 M
  GI50: 5.73 µM
[13]
  GI50: 3.8 µM
[14]
  GI50: 6.21 µM
[14]; present compounds
  Log10GI50: −4.55
[15]
  GI50: 6.19 µM
  Log10GI50: −5.21
[16]; [32]
  GI50: > 100 µM
[16]; Homo sapiens, MDA-MB-231, 48 h, row head printed 231/ATCC (second line of MDA-MB-231/ATCC), read-out: GI50
  GI50: 28.3 µM
[16]
  Log10GI50: >−4.0
[17]
  GI50: > 100 µM
[18]
  GI50: 4.44 µM
  Log10GI50: −5.35
[19]
  GI50: 3.38 µM
  Log10GI50: −5.47
[20]
  GI50: > 100 µM
  Log10GI50: >−4.0
[21]
  GI50: 5.59 µM
  Log10GI50: −5.25
[22]
  Log10GI50: −5.20
  GI50: 6.38 µM
[23]
  GI50: > 100 µM
[24]
  mean graph midpoint value (MG_MID) of Log10 GI50: −4.53 mol/L
  mean graph midpoint value (MG_MID) of log10 TGI: >−4.0
  CC50: > 100 µM
  GI50: 4.44 to 52.3 µM
[25]
  LC50: > 100 µM
  GI50: 2.2 to 4 µM
  mean graph midpoint value (MG_MID) of Log10 GI50: −5.49 log10(mol/L)
  mean graph midpoint value (MG_MID) of log10 TGI: −4.20
[26]
  GI50: 5.98 µM
  Log10GI50: −5.22
[27]
  GI50: > 100 µM
  Log10GI50: −5.04 log10 M
[28]
  GI50: 4.07 µM
[29]
  GI50: > 100 µM
  Log10GI50: >−4.0
[30]
  GI50: 6.04 µM
  Log10GI50: −5.22 M
[31]
  GI50: 1.73 µM
